The test system of data set [1] is pulmonary embolism induced by collagen. Put plainly: prevention of pulmonary embolic death in mice (collagen injection). Conditions: 300 mg/kg peroral, 3 h before collagen i.v.; control: 6/6 died. In kind it is in vivo, Male ddY mice. How it is done:
The following tests were conducted to evaluate the effect of the claimed compounds in the prevention of pulmonary embolic death in mice.
Each of the compounds being tested was suspended in 0.5% carboxymethyl cellulose and administered perorally at a dosage of 300 mg/kg (0.1 ml/10 g body weight).
Male ddY mice weighing 18-20 g were subjected to the test after being starved overnight.
Three hours after oral administration of a selected test compound to the mice, 30 mg/kg of adenosine-5'-diphosphate sodium salt (Sigma Chemical Co., Grade IX) or collagen was injected through their tail veins. The number of mice which died of pulmonary embolism within 3 minutes after the intravenous injections was counted.
The adenosine-5'-diphosphate sodium salt (ADP 2Na) was in the form of a solution in physiological saline at a concentration of 300 mg/10 ml. The collagen was administered in the form of a solution which was prepared by the following procedure: 25 mg of collagen was uniformly sonicated in a solution containing 25 mmol of tris-HCl and 130 mmol of sodium chloride (pH: 7.3), and the resultant dispersion was incubated at 37° C. for 45 minutes to form a polymer (after incubation, the collagen solution was kept in ice-water until it was used).
As a control, 0.5% carboxymethyl cellulose (10 ml/kg) was administered through tail veins.

Data set [2] concerns pulmonary embolism induced by adenosine-5'-diphosphate sodium salt (ADP 2Na). The data set is described as follows: prevention of pulmonary embolic death in mice (ADP 2Na injection). In kind it is in vivo, Male ddY mice. To be noted: 300 mg/kg peroral; for Number of animals dying within 3 minutes after injection/Number of animals in test, ADP 2Na: 3 h before 30 mg/kg ADP 2Na i.v., control: 6/6 died; for thrombolytic effects compared with Ticlopidine: from Table 1 (ADP 2Na and collagen), mice.

In data set [3] the test system is mice. Also noted: species or system ddY male mice. Conditions: mouse, in vivo. How it is done: The following acute toxicity test was conducted on mice:
Animal: Five-week old ddY male mice (wt: 21-27 g) in groups of 6.
Method: The mice were starved overnight and the compound prepared in Example 6 was administered perorally in an amount of 0.1 ml/10 g body weight after it was suspended in 0.5% carboxymethyl cellulose sodium salt (CMC-Na). As a control, 0.5% CMC-Na solution was administered.

Structures are written as SMILES.

For `Clc1ccc(-c2cnccn2)cc1` [Example 1, 2-(4-chlorophenyl)pyrazine], the “Number of animals dying within 3 minutes after injection/Number of animals in test, Collagen” value in data set [1] is 2/8. In data set [2], the “Number of animals dying within 3 minutes after injection/Number of animals in test, ADP 2Na” value is reported as 4/9 and the “thrombolytic effects compared with Ticlopidine” value is “equal to or greater than the levels achieved by a known thrombolytic agent, Ticlopidine”.
`Cc1ccc(-c2cnccn2)cc1` [Example 2, 2-(4-methylphenyl)pyrazine]: the “Number of animals dying within 3 minutes after injection/Number of animals in test, Collagen” value in data set [1] is reported as 7/8. In addition, in data set [2], the “Number of animals dying within 3 minutes after injection/Number of animals in test, ADP 2Na” value is on record as 3/7.
For `COc1ccc(-c2cnccn2)cc1` [Example 3, 2-(4-methoxyphenyl)pyrazine], the “Number of animals dying within 3 minutes after injection/Number of animals in test, Collagen” value in data set [1] is 6/8. Moreover, the “Number of animals dying within 3 minutes after injection/Number of animals in test, ADP 2Na” value in data set [2] is 4/7.
In the same order, the values of `Clc1cccc(-c2cnccn2)c1` [Example 4, 2-(3-chlorophenyl)pyrazine] are 6/10 and 5/10.
As to `Clc1ccc(-c2cnccn2)c(Cl)c1` [Example 5, 2-(2,4-dichlorophenyl)pyrazine], the “Number of animals dying within 3 minutes after injection/Number of animals in test, Collagen” value in data set [1] is 4/10. The “Number of animals dying within 3 minutes after injection/Number of animals in test, ADP 2Na” value in data set [2] is on record as 6/10.
For `Clc1ccc(-c2cnccn2)cc1Cl` [Example 6, 2-(3,4-dichlorophenyl)pyrazine], in data set [1], the “Number of animals dying within 3 minutes after injection/Number of animals in test, Collagen” value is listed as 4/10. Further, in data set [2], the “Number of animals dying within 3 minutes after injection/Number of animals in test, ADP 2Na” value is 3/10 and the “thrombolytic effects compared with Ticlopidine” value is recorded as “equal to or greater than the levels achieved by a known thrombolytic agent, Ticlopidine”. In data set [3], the “animals that died at the dosage levels used” value is “none of the animals treated with the compound of Example 6 died” and the “changes in the general condition of the mice” value was “No apparent changes were observed”.
In the case of `Clc1ccccc1-c1cnccn1` [Example 7, 2-(2-chlorophenyl)pyrazine], the “Number of animals dying within 3 minutes after injection/Number of animals in test, Collagen” value in data set [1] is 6/9. In data set [2], the “Number of animals dying within 3 minutes after injection/Number of animals in test, ADP 2Na” value is 5/10.
On to `Oc1ccc(-c2cnccn2)cc1` [Example 8, 2-(4-hydroxyphenyl)pyrazine], for which the “Number of animals dying within 3 minutes after injection/Number of animals in test, Collagen” value in data set [1] is 7/8. In addition, the “Number of animals dying within 3 minutes after injection/Number of animals in test, ADP 2Na” value in data set [2] is recorded as 4/7.

(Values after patent publication US4755514A, “Phenylpyrazine derivatives and thrombolytic agent” (Suntory Limited, priority 1985, dated 1988).)
